The values below come from patent US8957093B2, “N-biphenylmethylindole modulators of PPARG” (The Scripps Research Institute, priority 2011, dated 2015).

The target of one test is GST-PPARG-LBD (Homo sapiens (Human), UniProt P37231). The experiment in a line: Lanthascreen PPARG competitive binding assay (Invitrogen, TR-FRET). Conditions: Lanthascreen competitive binding; NA = not active; inc = incomplete curve; read-out: IC50 (nM) Lantha. The essentials:
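Values are fold change in 520 nm/490 nm FRET ratio relative to a 2% DMSO no-ligand control, excitation 340 nm. Compound dilutions starting at 10 μM competed against 5 nM Fluormone Pan-PPAR Green for GST-PPARG-LBD bound by 5 nM Tb anti-GST antibody. Incubation 2 h in the dark in assay buffer C, triplicate wells.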

Test [1] relates to PPARG (murine PPARg2 or full-length human PPARG, 3xPPRE-luciferase reporter). The experiment in a line: Cell-based PPRE-luciferase transactivation assay in COS-1 cells. The conditions noted are these: for EC50: PPRE-luciferase, COS-1 cells, NA = not active, read-out: EC50 (nM) PPRE. Here is the method:
Cell-Based Transactivation Assay:
PPRE is a DNA that contains a binding site for PPARG; thus PPRE is a PPAR response element, used herein as a promoter reporter. The binding site is a DR1 response element with the sequence AGGTCA repeated 3 times in tandem and then fused to a construct for luciferase.
Thus, PPRE is the basis of the cell based transactivation assay described below. The plasmid DNA is co-transfected along with a plasmid for PPARG into COS-1 cells. After an overnight incubation, cells are treated with DMSO or compounds.
Confluent COS-1 cells were transfected with 4.5 μg murine PPARg2-pSV Sport or full-length human PPAR9-pSport6, 4.5 μg 3×PPRE-luciferase reporter and 27 μL X-treme Gene 9 transfection reagent in serum-free opti-mem media (Gibco), followed by overnight incubation at 37° C., 5% CO2. Transfected cells were plated in white Perkin Elmer 384-well plates and incubated 4 hours. […] After 18 hour incubation, treated cells were developed with Brite Lite Plus (Perkin Elmer) and read in 384-well Luminescence Perkin Elmer EnVision Multilabel plate reader. Graphs were plotted in triplicate in GraphPad Prism Software as fold change of treated cells over DMSO control cells.

Each structure is given as a SMILES string. Where two headings read alike, the source gives them in different places.

Sequence of GST-PPARG-LBD (P37231 238-503): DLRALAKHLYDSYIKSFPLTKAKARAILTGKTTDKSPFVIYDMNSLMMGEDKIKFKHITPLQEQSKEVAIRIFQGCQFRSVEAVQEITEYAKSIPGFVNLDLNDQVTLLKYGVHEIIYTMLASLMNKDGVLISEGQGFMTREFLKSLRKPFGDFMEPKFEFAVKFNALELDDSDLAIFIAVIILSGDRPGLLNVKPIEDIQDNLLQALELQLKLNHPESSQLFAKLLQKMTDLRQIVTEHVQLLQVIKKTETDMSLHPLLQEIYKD

Take `Cc1c(C)n(Cc2ccc(-c3ccccc3C#N)cc2)c2ccc(C(=O)N[C@@H](C)c3ccc(Br)cc3)cc12` [Example 35, (S)—N-(1-(4-Bromophenyl)ethyl)-1-((2′-cyano-[1,1′-biphenyl]-4-yl)methyl)-2,3-dimethyl-1H-indole-5-carboxamide]: the IC50 (usually the concentration needed to halve the response being measured) at GST-PPARG-LBD was determined as 40 nM. In test [1], the 50% effective concentration (EC50) (usually the midpoint of the concentration-response curve) is 380 nM. The “PPRE transactivation (% in parentheses)” value in test [1] (rosiglitazone = 100%) was “(9%)”.

In the case of `CCC(NC(=O)c1ccc2c(c1)c(C)c(C)n2Cc1ccc(-c2ccccc2-c2nnn[nH]2)cc1)c1ccccc1` (stereo not drawn) [Example 36, 1-((2′-(1H-Tetrazol-5-yl)-[1,1′-biphenyl]-4-yl)methyl)-2,3-dimethyl-N-(1-phenylpropyl)-1H-indole-5-carboxamide], at GST-PPARG-LBD, the half-inhibitory concentration (IC50) turned out to be 6 nM. Besides, in test [1], the EC50 is 2 nM. Also, in test [1] (rosiglitazone = 100%), the “PPRE transactivation (% in parentheses)” value is reported as “(23%)”.

With `Cc1c(C)n(Cc2ccc(-c3ccccc3-c3nnn[nH]3)cc2)c2ccc(C(=O)N[C@@H](C)c3ccc(Br)cc3)cc12` [Example 37, (S)-1-((2′-(1H-tetrazol-5-yl)-[1,1′-biphenyl]-4-yl)methyl)-N-(1-(4-bromophenyl)ethyl)-2,3-dimethyl-1H-indole-5-carboxamide], the half-inhibitory concentration (IC50) on GST-PPARG-LBD is above 1000 nM. Further, in test [1], the EC50 is 1000 nM. Also, the “PPRE transactivation (% in parentheses)” value in test [1] (rosiglitazone = 100%) is reported as “(19%)”.

As to `C[C@H](NC(=O)c1ccc2c(ccn2Cc2ccc(-c3ccc(O)cc3)cc2)c1)c1ccc([N+](=O)[O-])cc1` [Example 47, (S)-1-((4′-Hydroxy-[1,1′-biphenyl]-4-yl)methyl)-N-(1-(4-nitrophenyl)ethyl)-1H-indole-5-carboxamide], the concentration for half-maximal inhibition (IC50) at GST-PPARG-LBD came to 300 nM. In addition, the “PPRE transactivation (% in parentheses)” value in test [1] (rosiglitazone = 100%) was “(0%)”.

Take `CCC(NC(=O)c1ccc2c(ccn2Cc2cccc(-c3ccccc3C(=O)O)c2)c1)c1ccccc1` (stereo not drawn) [Example 65, 3′-((5-((1-phenylpropyl)carbamoyl)-1H-indol-1-yl)methyl)-[1,1′-biphenyl]-2-carboxylic acid]: at GST-PPARG-LBD, the IC50 is 6 nM. Moreover, the concentration for a half-maximal effect (EC50) in test [1] was determined as 116 nM. In addition, the “PPRE transactivation (% in parentheses)” value in test [1] (rosiglitazone = 100%) is listed as “(18%)”.

Consider `CCC(NC(=O)c1ccc2c(ccn2Cc2cccc(-c3ccc(C(=O)O)cc3)c2)c1)c1ccccc1` (stereo not drawn) [Example 67, 3′-((5-((1-Phenylpropyl)carbamoyl)-1H-indol-1-yl)methyl)-[1,1′-biphenyl]-4-carboxylic acid], for which the concentration for half-maximal inhibition (IC50) at GST-PPARG-LBD was determined as 2 nM. Besides, the EC50 in test [1] stood at 2 nM. The “PPRE transactivation (% in parentheses)” value in test [1] (rosiglitazone = 100%) is “(8%)”.

For the molecule `CCC(NC(=O)c1ccc2c(ccn2Cc2ccccc2-c2cccc(C(=O)O)c2)c1)c1ccccc1` (stereo not drawn) [Example 69, 2′-((5-((1-Phenylpropyl)carbamoyl)-1H-indol-1-yl)methyl)-[1,1′-biphenyl]-3-carboxylic acid], the IC50 at GST-PPARG-LBD amounted to 4 nM. Also, the “PPRE transactivation (% in parentheses)” value in test [1] (rosiglitazone = 100%) is recorded as “(0%)”.

Take `CCC(NC(=O)c1ccc2c(ccn2Cc2ccccc2-c2ccc(C(=O)O)cc2)c1)c1ccccc1` (stereo not drawn) [Example 70, 2′-((5-((1-Phenylpropyl)carbamoyl)-1H-indol-1-yl)methyl)-[1,1′-biphenyl]-4-carboxylic acid]: at GST-PPARG-LBD, the IC50 turned out to be 10 nM. In addition, the “PPRE transactivation (% in parentheses)” value in test [1] is recorded as “(0%)”.

On to `Cc1c(C)n(Cc2ccc(-c3ccccc3C(=O)O)cc2)c2ccc(C(=O)NC[C@H](C)c3ccccc3)cc12` [Example 74, (R)-4′-((2,3-dimethyl-5-(2-phenylpropylcarbamoyl)-1H-indol-1-yl)methyl)biphenyl-2-carboxylic acid], for which the half-inhibitory concentration (IC50) on GST-PPARG-LBD turned out to be 76 nM. Further, the EC50 in test [1] is 300 nM. In test [1] (rosiglitazone = 100%), the “PPRE transactivation (% in parentheses)” value was “(26%)”.

Consider `Cc1c(C)n(Cc2ccc(-c3ccccc3C(=O)O)cc2)c2ccc(C(=O)NCc3ccc(F)cc3)cc12` [Example 76, 4′-((5-(4-fluorobenzylcarbamoyl)-2,3-dimethyl-1H-indol-1-yl)methyl)biphenyl-2-carboxylic acid], for which the IC50 at GST-PPARG-LBD was determined as 5 nM. Further, the EC50 in test [1] was determined as 23 nM. For the same molecule, in test [1] (rosiglitazone = 100%), the “PPRE transactivation (% in parentheses)” value was “(15%)”.

On to `Cc1c(C)n(Cc2ccc(-c3ccccc3C(=O)O)cc2)c2ccc(C(=O)NCc3ccc4c(c3)OCO4)cc12` [Example 78, 4′-((5-(benzo[d][1,3]dioxol-5-ylmethylcarbamoyl)-2,3-dimethyl-1H-indol-1-yl)methyl)biphenyl-2-carboxylic acid], for which the IC50 on GST-PPARG-LBD came to 33 nM. In addition, the concentration giving a half-maximal response (EC50) in test [1] amounted to 1000 nM. Also, the “PPRE transactivation (% in parentheses)” value in test [1] (rosiglitazone = 100%) was “(30%)”.

`Cc1c(C)n(Cc2ccc(-c3ccccc3C(=O)O)cc2)c2ccc(C(=O)N[C@@H](CO)c3ccccc3)cc12` [Example 79, (R)-4′-((5-(2-hydroxy-1-phenylethylcarbamoyl)-2,3-dimethyl-1H-indol-1-yl)methyl)biphenyl-2-carboxylic acid]: the IC50 at GST-PPARG-LBD came to 37 nM. For the same molecule, the EC50 in test [1] came out at 297 nM. For the same molecule, the “PPRE transactivation (% in parentheses)” value in test [1] (rosiglitazone = 100%) was “(25%)”.

Regarding `Cc1c(C)n(Cc2ccc(-c3ccccc3C(=O)O)cc2)c2ccc(C(=O)NCc3cccc(N)c3)cc12` [Example 80, 4′-((5-(3-aminobenzylcarbamoyl)-2,3-dimethyl-1H-indol-1-yl)methyl)biphenyl-2-carboxylic acid], the 50% inhibitory concentration (IC50) on GST-PPARG-LBD came out at 13 nM. Besides, in test [1], the EC50 came out at 2700 nM. For the same molecule, in test [1] (rosiglitazone = 100%), the “PPRE transactivation (% in parentheses)” value is “(20%)”.

As for `Cc1ccc(CNC(=O)c2ccc3c(c2)c(C)c(C)n3Cc2ccc(-c3ccccc3C(=O)O)cc2)o1` [Example 84, 4′-((2,3-dimethyl-5-((5-methylfuran-2-yl)methylcarbamoyl)-1H-indol-1-yl)methyl)biphenyl-2-carboxylic acid], at GST-PPARG-LBD, the IC50 worked out at 12 nM. In addition, the 50% effective concentration (EC50) in test [1] was found to be 40 nM. Also, the “PPRE transactivation (% in parentheses)” value in test [1] (rosiglitazone = 100%) is on record as “(17%)”.

On to `Cc1c(C)n(Cc2ccc(-c3ccccc3C(=O)O)cc2)c2ccc(C(=O)NCCN3CCOCC3)cc12` [Example 85, 4′-((2,3-dimethyl-5-(2-morpholinoethylcarbamoyl)-1H-indol-1-yl)methyl)biphenyl-2-carboxylic acid], for which, at GST-PPARG-LBD, the IC50 is above 1000 nM. The “PPRE transactivation (% in parentheses)” value in test [1] (rosiglitazone = 100%) is listed as “(0%)”.

As for `Cc1c(C)n(Cc2ccc(-c3ccccc3C(=O)O)cc2)c2ccc(C(=O)NC3COc4ccccc4C3)cc12` (stereo not drawn) [Example 86, 4′-((5-(chroman-3-ylcarbamoyl)-2,3-dimethyl-1H-indol-1-yl)methyl)biphenyl-2-carboxylic acid], the IC50 on GST-PPARG-LBD was 10 nM. In addition, the “PPRE transactivation (% in parentheses)” value in test [1] (rosiglitazone = 100%) was “(0%)”.

With `Cc1c(C)n(Cc2ccc(-c3ccccc3C(=O)O)cc2)c2ccc(C(=O)NCC3COc4ccccc4C3)cc12` (stereo not drawn) [Example 87, 4′-((5-(chroman-3-ylmethylcarbamoyl)-2,3-dimethyl-1H-indol-1-yl)methyl)biphenyl-2-carboxylic acid], the IC50 at GST-PPARG-LBD is 17 nM. In addition, the EC50 in test [1] is 200 nM. In addition, in test [1] (rosiglitazone = 100%), the “PPRE transactivation (% in parentheses)” value is recorded as “(18%)”.

Consider `Cc1c(C)n(Cc2ccc(-c3ccccc3C(=O)O)cc2)c2ccc(C(=O)NCC3COc4ccccc4O3)cc12` (stereo not drawn) [Example 88, 4′-((5-((2,3-dihydrobenzo[b][1,4]dioxin-2-yl)methylcarbamoyl)-2,3-dimethyl-1H-indol-1-yl)methyl)biphenyl-2-carboxylic acid], for which the 50% inhibitory concentration (IC50) at GST-PPARG-LBD worked out at 11 nM. In addition, the EC50 in test [1] worked out at 170 nM. Besides, the “PPRE transactivation (% in parentheses)” value in test [1] (rosiglitazone = 100%) is given as “(17%)”.

For `Cc1c(C)n(Cc2ccc(-c3ccccc3C(=O)O)cc2)c2ccc(C(=O)NC3CCCC3)cc12` [Example 90, 4′-((5-(cyclopentylcarbamoyl)-2,3-dimethyl-1H-indol-1-yl)methyl)biphenyl-2-carboxylic acid], the IC50 on GST-PPARG-LBD was 25 nM. Also, the EC50 in test [1] was above 1000 nM. Further, in test [1] (rosiglitazone = 100%), the “PPRE transactivation (% in parentheses)” value is listed as “(18%)”.

Take `COCCNC(=O)c1ccc2c(c1)c(C)c(C)n2Cc1ccc(-c2ccccc2C(=O)O)cc1` [Example 92, 4′-((5-(2-methoxyethylcarbamoyl)-2,3-dimethyl-1H-indol-1-yl)methyl)biphenyl-2-carboxylic acid]: the half-maximal inhibitory concentration (IC50) on GST-PPARG-LBD came out at 17 nM. In addition, the EC50 in test [1] is above 1000 nM. Also, the “PPRE transactivation (% in parentheses)” value in test [1] (rosiglitazone = 100%) is on record as “(9%)”.

On to `Cc1c(C)n(Cc2ccc(-c3ccccc3C(=O)O)cc2)c2ccc(C(=O)NCc3ccc(N)cc3)cc12` [Example 95, 4′-((5-(4-aminobenzylcarbamoyl)-2,3-dimethyl-1H-indol-1-yl)methyl)biphenyl-2-carboxylic acid], for which the IC50 on GST-PPARG-LBD is 4 nM. The “PPRE transactivation (% in parentheses)” value in test [1] (rosiglitazone = 100%) is “(0%)”.

As for `Cc1c(C)n(Cc2ccc(-c3ccccc3C(=O)O)cc2)c2ccc(C(=O)NCc3cccc(C(F)(F)F)c3)cc12` [Example 100, 4′-((2,3-dimethyl-5-(3-(trifluoromethyl)benzylcarbamoyl)-1H-indol-1-yl)methyl)biphenyl-2-carboxylic acid], at GST-PPARG-LBD, the IC50 was found to be 191 nM. Further, in test [1], the concentration giving a half-maximal response (EC50) was found to be 281 nM. Besides, the “PPRE transactivation (% in parentheses)” value in test [1] (rosiglitazone = 100%) was “(21%)”.
